Measurements reported in patent publication US20040096423A1, “Use of a triple combination comprising a 5ht3 antagonist, a 5ht4agonist and a laxative for promoting intestinal lavage” (priority 2000, published 2004).

Columns and labels:
[1] = tested on: dogs; assay: Measurement of onset of liquid stool in dogs challenged with KleanPrep; type: in vivo, dog; details: for ED50: Canis lupus familiaris, read-out: ED50 for liquid stools within 6 hours after administration of KleanPrep
Method: Measurement of Onset of Liquid Stool
The dogs were orally or subcutaneously pretreated with test compounds or distilled water (0.5 ml/kg) and 1 hour later challenged by gavage with KleanPrep™ (standard volume: 2×200 ml at a 15 minutes interval). The time interval at which the first liquid stool occurred was noted (in minutes after the first administration of KleanPrep™) up to 6 hours after challenge.
The KleanPrep™ preparation consisted of polyethyleneglycol 3350 (59.000 g/l), sodium sulphate (5.685 g/l), sodium hydrogencarbonate (1.685 g/l), sodium chloride (1.465 g/l), potassium chloride (0.7425 g/l), aspartate (0.0494 g/l) and vanilla (0.3291 g/l).
In a pilot study on five dogs, large volumes of KleanPrep™ (1400, 1400, 1800, 2800, 2800 ml) and relatively long time intervals (95, 101, 124, 211 and 305 minutes after KleanPrep™) were required to obtain liquid stools within an observation period of 6 hours. In the present experiments, a standard volume of 400 ml KleanPrep™ solution (2×200 ml at a 15 minutes interval) was used. Under these conditions, liquid stools were not observed up to 6 hours after KleanPrep™, neither in 40 control dogs pretreated with a single dose of distilled water (0.5 ml/kg, p.o., −1 hour), nor in 35 control dogs pretreated with two doses of distilled water (0.5 ml/kg, p.o., −1 hour) immediately after each other, nor in 10 dogs pretreated with a dose of distilled water (0.5 ml/kg, p.o., −1 hour) and a dose of saline (0.5 ml/kg, s.c., −1 hour), nor in 5 dogs treated with two doses of distilled water (0.5 ml/kg, p.o., −1 hour) and a dose of saline (0.5 ml/kg, s.c., −1 hour).

[2] = target: T1, 5HT4 receptor (Cavia porcellus, UniProt O70528); assay: Electrically stimulated guinea-pig ileum longitudinal muscle-myenteric plexus strips (titled in vitro binding affinity for the 5HT4 receptor); type: cell-based; details: submaximal electrical stimulation
T1 construct: The longitudinal muscle layer with myenteric plexus was removed; from tissue; host or cells: guinea-pig ileum longitudinal muscle with myenteric plexus
T1 sequence (O70528 whole entry): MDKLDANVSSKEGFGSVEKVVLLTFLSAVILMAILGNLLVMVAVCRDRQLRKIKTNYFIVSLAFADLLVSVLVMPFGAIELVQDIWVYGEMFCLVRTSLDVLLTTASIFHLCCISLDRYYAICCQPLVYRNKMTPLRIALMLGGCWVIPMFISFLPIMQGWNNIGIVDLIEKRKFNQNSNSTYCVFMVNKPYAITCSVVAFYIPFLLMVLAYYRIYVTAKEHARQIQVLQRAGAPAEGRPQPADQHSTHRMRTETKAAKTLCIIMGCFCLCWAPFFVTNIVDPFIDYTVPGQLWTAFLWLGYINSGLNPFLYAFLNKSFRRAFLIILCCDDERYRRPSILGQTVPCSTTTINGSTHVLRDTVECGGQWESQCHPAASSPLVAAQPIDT
From the text: Dunkin-Hartley guinea-pigs of either sex (weighing between 600-900 g) were killed by decapitation. The ileum was removed and cleansed with warmed and oxygenated Krebs-Henseleit solution. Parts of the ileum (15 cm) were slipped over a glass pipette. The longitudinal muscle layer with myenteric plexus was removed by means of a cotton thread moistened with Krebs solution. Strips with a length of 8 cm were folded and these strips (4 cm) were mounted between two platinum electrodes (8 cm length, 0.5 cm apart). […] The preparations were excited with single rectangular stimuli [1 ms; 0.1 Hz; submaximal response (current leading to 80% of maximal response), from a programmable stimulator (Janssen Scientific Instruments Division)]. Contractions were measured isometrically (Statham UC2, Janssen Scientific Instruments amplifier, Kipp BD-9 pen-recorder). During the stabilization period of 30 minutes, the strips were repeatedly stretched, in order to obtain a steady state tension of 1.5 g. Before starting the electrical stimulation, a cumulative concentration response curve of acetylcholine (3.10^−9, 10^−8, 3.10^−8 and 10^−7 M) was given. The bath fluid was replaced with fresh Krebs solution and the strips were allowed to stabilize for another 30 minutes. Subsequently, the strips were stimulated electrically (power stimulator) at a frequency of 0.1 Hz for 1 ms. […]

[3] = of 35 dogs, Compound A 0.01 mg/kg p.o. + distilled water, 1 h before KleanPrep
[4] = dogs pretreated with Compound A 0.01 mg/kg, 5HT4 agonist co-administered, + KleanPrep
[5] = dogs pretreated with Compound A 0.01 mg/kg, 5HT4 agonist co-administered, + KleanPrep, shortest median reached (down to)
[6] = dogs, 5HT4 agonist alone 1 h before KleanPrep 2×200 ml

| EC50 [2] | SMILES | median onset of the first liquid stool after administration of KleanPrep ([1]; dogs, Compound A 0.01 mg/kg p.o. + KleanPrep, no 5HT4 agonist (control)) | number of dogs displaying liquid stools within 1 hour [1, 3] | number of dogs displaying liquid stools within 6 hours [1, 3] | ED50 for liquid stools within 1 hour [1, 4] | median onset of the first liquid stool after administration of KleanPrep [1, 5] | dose up to which liquid stools were not induced over the 6 hour observation period [1, 6] | ED50 [1, 6] | dose up to which liquid stools within 1 hour were not obtained [1, 6] |
| --- | --- | --- | --- | --- | --- | --- | --- | --- | --- |
| – | CO[C@@H]1CN(CCCNc2nccc(=O)[nH]2)CC[C@@H]1NC(=O)c1cc(Cl)c(N)c2c1OC(C)(C)C2 (relative stereo) [Compound A, (−)-cis-4-amino-5-chloro-2,3-dihydro-N-[1-[3-[(3,4-dihydro-4-oxo-2-pyrimidinyl)-amino]propyl]-3-methoxy-4-piperidinyl]-2,2-dimethyl-7-benzofurancarboxamide] | 125 min | two | Thirty-three | – | – | – | – | – |
| 1.6 nM | COCCCN1CC[C@@H](CNC(=O)c2cc(Cl)c(N)c3c2OC(C)(C)C3)[C@H](O)C1 [Compound B, (3S-trans)-4-amino-5-chloro-2,3-dihydro-N-[[3-hydroxy-1-(3-methoxypropyl)-4-piperidinyl]methyl]-2,2-dimethyl-7-benzofuran-carboxamide] | – | – | – | 0.0014 mg/kg | 29 min | > 2.5 mg/kg | – | – |
| – | COc1cc(N)c(Cl)cc1C(=O)NC1CCN(CCCOc2ccc(F)cc2)CC1OC (centres unmarked) [cisapride] | – | – | – | 0.056 mg/kg | 24 min | – | 0.89 mg/kg | – |
| – | COCCCN1CCC(NC(=O)c2cc(Cl)c(N)c3c2OCC3)CC1 [prucalopride] | – | – | – | 0.22 mg/kg | 32 min | – | 2.3 mg/kg | > 5 mg/kg |
